# Laboratory results published in patent US9145354B2, “Pharmaceutical compounds” (priority 2011, dated 2015).
# Read-outs that look alike come from different tables or passages of the source.
# Target: full length NS3/4a (Hepatitis C virus genotype 1b (isolate BK) (HCV), UniProt P26663)
# Experiment: NS3 Protease Assay (Example A), FRET-based
# Type: biochemical
# Protocol: The HCV NS3 protease functions have been extensively studied and are considered as potential targets for antiviral therapy: see for example the many references listed in the introductory section of this application. Therefore, the activity of the compounds of the invention as anti-HCV agents was assessed using a full length HCV NS3 protease.
# The protease activity of the full length NS3/4a was measured using a FRET-based assay utilizing a peptide substrate derived from the NS4A/B cleavage site (Anaspec) and labelled at one end with a quencher (QXL520) and at the other with a fluorophore (5-FAMsp). NS3/4a (produced in-house by literature methods) was incubated with test compounds and peptide substrate in 50 mM Tris pH8, 20 mM DTT, 1% CHAPS, 10% glycerol and 5% DMSO. The reaction was followed by monitoring the change in fluorescence on a Molecular Devices Gemini plate reader for 30 minutes at room temperature. Initial rates were calculated from the progress curves using SoftMax Pro (Molecular Devices). IC50 values were then calculated from replicate curves using Prism GraphPad software.
# [1] = read-out: IC50 against the protease activity of the full length NS3/4a
# [2] = HCV NS3 protease assay, full length NS3/4a, read-out: Assay A IC50 (μM) average
# [3] = stated as IC50 less than 30 μM or at least 40% inhibition at a concentration of 100 μM, read-out: IC50 against the protease activity of the full length NS3/4a
# Sequence of full length NS3/4a (P26663 1027-1657): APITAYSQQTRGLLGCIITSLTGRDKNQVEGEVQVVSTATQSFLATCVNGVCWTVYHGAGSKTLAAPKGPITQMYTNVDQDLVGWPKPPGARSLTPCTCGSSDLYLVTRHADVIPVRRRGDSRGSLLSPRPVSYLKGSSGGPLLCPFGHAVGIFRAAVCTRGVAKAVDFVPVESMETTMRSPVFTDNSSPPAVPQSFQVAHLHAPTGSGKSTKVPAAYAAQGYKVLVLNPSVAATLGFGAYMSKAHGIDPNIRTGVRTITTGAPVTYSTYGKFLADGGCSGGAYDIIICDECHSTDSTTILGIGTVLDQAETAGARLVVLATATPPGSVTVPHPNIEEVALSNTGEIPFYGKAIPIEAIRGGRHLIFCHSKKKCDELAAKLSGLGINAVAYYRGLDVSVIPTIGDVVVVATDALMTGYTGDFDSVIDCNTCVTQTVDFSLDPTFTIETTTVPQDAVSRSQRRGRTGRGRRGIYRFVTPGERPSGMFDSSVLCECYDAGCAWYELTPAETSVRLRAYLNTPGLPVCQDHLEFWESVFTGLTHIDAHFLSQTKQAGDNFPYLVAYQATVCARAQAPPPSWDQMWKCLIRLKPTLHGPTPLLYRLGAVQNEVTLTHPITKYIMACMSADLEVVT
SMILES,IC50 [1] [µM],IC50 [2] [µM],other results
"CC[C@@H](N)c1ccc(Cl)c(C(=O)c2ccc(C#N)nc2)c1F [Example 34, 5-({3-[(1R)-1-aminopropyl]-6-chloro-2-fluorophenyl}carbonyl)pyridine-2-carbonitrile]",1 to 5,–,inhibition at 3 µM: 55%
"CC[C@@H](N)c1ccc(Cl)c(C(=O)c2ccc(N(C)C)nc2)c1F [Example 35, 5-({3-[(1R)-1-aminopropyl]-6-chloro-2-fluorophenyl}carbonyl)-N,N-dimethylpyridin-2-amine]",–,–,inhibition at 10 µM: 30%
"CC[C@@H](N)c1ccc(Cl)c(C(=O)c2ccc(NC)nc2)c1F [Example 36, 5-({3-[(1R)-1-aminopropyl]-6-chloro-2-fluorophenyl}carbonyl)-N-methylpyridin-2-amine]",< 1,0.71,–
"CC[C@@H](N)c1ccc(Cl)c(C(=O)c2ccc(-n3cccn3)nc2)c1F [Example 37, (1R)-1-(4-chloro-2-fluoro-3-{[6-(1H-pyrazol-1-yl)pyridin-3-yl]carbonyl}phenyl)propan-1-amine]",< 1,0.49,–
"CC[C@@H](N)c1ccc(Cl)c(C(=O)c2ccc(=O)[nH]c2)c1F [Example 38, 5-({3-[(1R)-1-aminopropyl]-6-chloro-2-fluorophenyl}carbonyl)-1,2-dihydropyridin-2-one]",1 to 5,3.6,–
"CC[C@@H](N)c1ccc(C)c(C(=O)c2ccccc2)c1F [Example 39, (1R)-1-(3-benzoyl-2-fluoro-4-methylphenyl)propan-1-amine]",< 1,0.73,–
"CC[C@@H](N)c1ccc(OC)c(C(=O)c2ccccc2)c1F [Example 40, (1R)-1-(3-benzoyl-2-fluoro-4-methoxyphenyl)propan-1-amine]",< 1,0.84,–
"CC[C@@H](N)c1ccc(Cl)c(C(=O)c2cc[n+]([O-])cc2)c1F [Example 42, [3-((R)-1-Amino-propyl)-6-chloro-2-fluoro-phenyl]-(1-oxy-pyridin-4-yl)-methanone]",< 1,0.53,–
"CC[C@@H](N)c1ccc(F)c(C(=O)c2ccccc2)c1F [Example 43, (1R)-1-(3-benzoyl-2,4-difluorophenyl)propan-1-amine]",< 1,0.74,–
"CC[C@@H](N)c1ccc(O)c(C(=O)c2ccccc2)c1F [Example 44, 4-[(1R)-1-aminopropyl]-2-benzoyl-3-fluorophenol]",–,–,inhibition at 100 µM (@ 100 uM): 30%
"CC[C@@H](N)c1ccc(Cl)c(C(=O)c2cncc(N)c2)c1F [Example 45, 5-({3-[(1R)-1-aminopropyl]-6-chloro-2-fluorophenyl}carbonyl)pyridin-3-amine]",–,–,inhibition at 10 µM: 50%; IC50 [3]: < 30 µM
"CC[C@@H](N)c1ccc(Cl)c(C(=O)c2ccc(-n3cc(CO)cn3)nc2)c1F [Example 46, {1-[5-({3-[(1R)-1-aminopropyl]-6-chloro-2-fluorophenyl}carbonyl)pyridin-2-yl]-1H-pyrazol-4-yl}methanol]",–,–,inhibition at 10 µM: 64%; IC50 [3]: < 30 µM
"Nc1ccc(C(=O)c2c(Cl)ccc([C@H](N)C3CC3)c2F)cn1 [Example 47, 5-({3-[(R)-amino(cyclopropyl)methyl]-6-chloro-2-fluorophenyl}carbonyl)pyridin-2-amine]",< 1,0.18,–
"CC[C@@H](N)c1ccc(Cl)c(C(=O)c2ccc(COC(C)=O)cc2)c1F [Example 49, [4-({3-[(1R)-1-aminopropyl]-6-chloro-2-fluorophenyl}carbonyl)phenyl]methyl acetate]",< 1,0.15,–
"CC[C@@H](N)c1ccc(Cl)c(C(=O)c2ccc(CO)cc2)c1F [Example 50, [4-({3-[(1R)-1-aminopropyl]-6-chloro-2-fluorophenyl}carbonyl)phenyl]methanol]",< 1,0.21,–
"CC[C@@H](N)c1ccc(Cl)c(C(=O)c2cnc(SC)nc2)c1F [Example 51, (1R)-1-(4-chloro-2-fluoro-3-{[2-(methylsulfanyl)pyrimidin-5-yl]carbonyl}phenyl)propan-1-amine]",–,–,inhibition at 3 µM: 44%; IC50 [3]: < 30 µM
"CC[C@@H](N)c1ccc(Cl)c(C(=O)c2ccnc(N)c2)c1F [Example 52, 4-({3-[(1R)-1-aminopropyl]-6-chloro-2-fluorophenyl}carbonyl)pyridin-2-amine]",< 1,0.77,–
"CC[C@@H](N)c1ccc(Cl)c(C(=O)c2cccc(CO)c2)c1F [Example 54, [3-({3-[(1R)-1-aminopropyl]-6-chloro-2-fluorophenyl}carbonyl)phenyl]methanol]",< 1,0.14,–
"CC[C@@H](N)c1ccc(Cl)c(C(=O)c2cn[nH]c2)c1F [Example 55, (1R)-1-{4-chloro-2-fluoro-3-[(1H-pyrazol-4-yl)carbonyl]phenyl}propan-1-amine]",1 to 5,4.4,–
"Nc1cnc(C(=O)c2c(Cl)ccc([C@H](N)C3CC3)c2F)cn1 [Example 56, 5-({3-[(R)-amino(cyclopropyl)methyl]-6-chloro-2-fluorophenyl}carbonyl)pyrazin-2-amine]",< 1,0.6,–
"CC[C@@H](N)c1ccc(Cl)c(C(=O)c2cnc(NC)cn2)c1F [Example 57, 5-({3-[(1R)-1-aminopropyl]-6-chloro-2-fluorophenyl}carbonyl)-N-methylpyrazin-2-amine]",1 to 5,4.6,–
"CC[C@@H](N)c1ccc(Cl)c(C(=O)c2ccc3c(n2)NC(=O)CO3)c1F [Example 58, 6-({3-[(1R)-1-aminopropyl]-6-chloro-2-fluorophenyl}carbonyl)-2H,3H,4H-pyrido[3,2-b][1,4]oxazin-3-one]",–,–,inhibition at 10 µM: 31%
"CC[C@@H](N)c1ccc(Cl)c(C(=O)c2ccc3c(c2)OCC(=O)N3)c1F [Example 60, 7-({3-[(1R)-1-Aminopropyl]-6-chloro-2-fluorophenyl}-carbonyl)-3,4-dihydro-2H-1,4-benzoxazin-3-one]",< 1,0.55,–
"Nc1ccc(C(=O)c2c(Cl)ccc([C@H](N)C3CC3)c2F)nc1 [Example 61, 6-({3-[(R)-amino(cyclopropyl)methyl]-6-chloro-2-fluorophenyl}carbonyl)pyridin-3-amine]",1 to 5,1.2,–
"N#Cc1ccc(C(=O)c2c(Cl)ccc([C@H](N)C3CC3)c2F)nc1 [Example 62, 6-({3-[(R)-amino(cyclopropyl)methyl]-6-chloro-2-fluorophenyl}carbonyl)pyridine-3-carbonitrile]",< 1,0.32,–
"CC[C@@H](N)c1ccc(Cl)c(C(=O)c2ccc([N+](=O)[O-])c(C)c2)c1F [Example 64, (1R)-1-{4-chloro-2-fluoro-3-[(3-methyl-4-nitrophenyl)carbonyl]phenyl}propan-1-amine]",–,–,inhibition at 0.1 µM (@ 0.1 uM): 44%
"CC[C@@H](N)c1ccc(Cl)c(C(=O)c2ccc3c(c2)OCCN3)c1F [Example 65, (1R)-1-{4-chloro-3-[(3,4-dihydro-2H-1,4-benzoxazin-7-yl)carbonyl]-2-fluorophenyl}propan-1-amine]",–,0.16,–
"CCC[C@@H](N)c1ccc(Cl)c(C(=O)c2ccc(N)nc2)c1F [Example 66, 5-({3-[(1R)-1-aminobutyl]-6-chloro-2-fluorophenyl}carbonyl)pyridin-2-amine]",–,0.2,–
"C=CC[C@@H](N)c1ccc(Cl)c(C(=O)c2ccc(N)nc2)c1F [Example 67, 5-({3-[(1R)-1-aminobut-3-en-1-yl]-6-chloro-2-fluorophenyl}carbonyl)pyridin-2-amine]",–,0.37,–
